Results as given in ChEMBL document CHEMBL5247598 (Eur J Med Chem, 2022).
The source made the active and inactive calls. The rule behind the calls is not given here.

Key:
NCI/ADR-RES [1] = assay: Induction of apoptosis in human NCI-ADR-RES cells assessed as viable cells at 8 uM incubated for 48 hrs in presence of doxorubicin by Annexin V-FITC and DAPI staining based flow cytometry (Rvb= 97.9 %); format: functional; conditions: read-out: Activity
NCI/ADR-RES [2] = assay: Induction of apoptosis in human NCI-ADR-RES cells assessed as early apoptotic cells at 8 uM incubated for 24 hrs in presence of doxorubicin by Annexin V-FITC and DAPI staining based flow cytometry (Rvb= 0.89 %); format: functional
NCI-ADR-RES [3] = assay: Inhibition of PI3K/AKT signaling pathway in human NCI-ADR-RES cells assessed as decrease in Bcl-2 level at 3 uM incubated for 24 to 48 hrs in presence of doxorubicin by Western blot analysis; format: cell-based; conditions: time 24-48 hrs
NCI/ADR-RES [4] = assay: Induction of apoptosis in human NCI-ADR-RES cells assessed as late apoptotic cells at 3 uM incubated for 24 hrs by Annexin V-FITC and DAPI staining based flow cytometry (Rvb= 0.66 %); format: functional
NCI/ADR-RES [5] = assay: Antiproliferative activity against human multidrug resistant NCI-ADR-RES cells assessed as inhibition of cell growth at 50 uM incubated for 48 hrs by MTT assay; format: functional, cell-based
NCI/ADR-RES [6] = assay: Induction of apoptosis in human NCI-ADR-RES cells assessed as viable cells at 3 uM incubated for 48 hrs by Annexin V-FITC and DAPI staining based flow cytometry (Rvb= 97.9 %); format: functional; conditions: read-out: Activity
NCI/ADR-RES [7] = assay: Induction of apoptosis in human NCI-ADR-RES cells assessed as necrotic cells at 8 uM incubated for 24 hrs in presence of doxorubicin by Annexin V-FITC and DAPI staining based flow cytometry (Rvb= 0.55 %); format: functional
NCI/ADR-RES [8] = assay: Induction of apoptosis in human NCI-ADR-RES cells assessed as viable cells at 8 uM incubated for 24 hrs in presence of doxorubicin by Annexin V-FITC and DAPI staining based flow cytometry (Rvb= 97.9 %); format: functional; conditions: read-out: Activity
NCI/ADR-RES [9] = assay: Induction of apoptosis in human NCI-ADR-RES cells assessed as late apoptotic cells at 3 uM incubated for 48 hrs by Annexin V-FITC and DAPI staining based flow cytometry (Rvb= 0.66 %); format: functional
MCF7 [10] = assay: Antiproliferative activity against human MCF7 cells assessed as reduction in cell viability incubated for 48 hrs by MTT assay; format: functional, cell-based; conditions: MCF7, 48 h, read-out: IC50
NCI-ADR-RES [11] = assay: Inhibition of PI3K/AKT signaling pathway in human NCI-ADR-RES cells assessed as changes in caspase-6 level at 3 uM incubated for 24 to 48 hrs in presence of doxorubicin by Western blot analysis; format: cell-based; conditions: time 24-48 hrs
P-gp = assay: Therapeutic index, ratio of IC50 for cytotoxicity against human HEK293T cells to EC50 for reversal of P-gp-mediated multidrug resistance in human NCI-ADR-RES cells; format: toxicity, cell-based; conditions: read-out: Ratio IC50/EC50
MCF7 [12] = assay: Antiproliferative activity against human MCF7 cells assessed as inhibition of cell growth at 50 uM incubated for 48 hrs by MTT assay; format: functional, cell-based
NCI/ADR-RES [13] = assay: Reversal of P-gp-mediated multidrug resistance in human NCI-ADR-RES cells assessed as potentiation of doxorubicin-induced cytotoxicity incubated for 48 hrs by MTT assay; format: functional, cell-based
NCI/ADR-RES [14] = assay: Induction of apoptosis in human NCI-ADR-RES cells assessed as necrotic cells at 8 uM incubated for 48 hrs in presence of doxorubicin by Annexin V-FITC and DAPI staining based flow cytometry (Rvb= 0.55 %); format: functional
NCI/ADR-RES [15] = assay: Reversal of P-gp-mediated multidrug resistance in human NCI-ADR-RES cells assessed as change in ABCB1 expression level at 1 to 10 uM incubated for 48 hrs in presence of doxorubicin by Western blot analysis; format: functional, cell-based; conditions: dose 1-10 µM
HEK-293T [16] = assay: Cytotoxicity against human HEK293T cells assessed as cell survival rate at 10 uM incubated for 48 hrs by MTT assay; format: toxicity, cell-based
HEK-293T [17] = assay: Cytotoxicity against human HEK293T cells assessed as inhibition of cell growth at 50 uM incubated for 48 hrs by MTT assay; format: toxicity, cell-based
NCI/ADR-RES [18] = assay: Induction of apoptosis in human NCI-ADR-RES cells assessed as necrotic cells at 3 uM incubated for 24 hrs by Annexin V-FITC and DAPI staining based flow cytometry (Rvb= 0.55 %); format: functional
NCI/ADR-RES [19] = assay: Induction of apoptosis in human NCI-ADR-RES cells assessed as late apoptotic cells at 8 uM incubated for 48 hrs in presence of doxorubicin by Annexin V-FITC and DAPI staining based flow cytometry (Rvb= 0.66 %); format: functional
NCI/ADR-RES [20] = assay: Induction of apoptosis in human NCI-ADR-RES cells assessed as early apoptotic cells at 3 uM incubated for 24 hrs by Annexin V-FITC and DAPI staining based flow cytometry (Rvb= 0.89 %); format: functional
[21] = Cytotoxicity against human HEK293T cells assessed as reduction in cell viability incubated for 48 hrs by MTT assay; format: toxicity, cell-based, HEK-293T
NCI-ADR-RES [22] = assay: Inhibition of PI3K/AKT signaling pathway in human NCI-ADR-RES cells assessed as decrease in AKT phosphorylation at 3 uM incubated for 24 to 48 hrs in presence of doxorubicin by Western blot analysis; format: cell-based; conditions: time 24-48 hrs
NCI/ADR-RES [23] = assay: Induction of apoptosis in human NCI-ADR-RES cells assessed as early apoptotic cells at 8 uM incubated for 48 hrs in presence of doxorubicin by Annexin V-FITC and DAPI staining based flow cytometry (Rvb= 0.89 %); format: functional
NCI-ADR-RES [24] = assay: Inhibition of PI3K/AKT signaling pathway in human NCI-ADR-RES cells assessed as decrease in PI3K phosphorylation at 3 uM incubated for 24 to 48 hrs in presence of doxorubicin by Western blot analysis; format: cell-based; conditions: time 24-48 hrs
NCI/ADR-RES [25] = assay: Reversal of P-gp-mediated multidrug resistance in human NCI-ADR-RES cells assessed as change in ABCB1 expression level at 1 to 10 uM incubated for 48 hrs by Western blot analysis; format: functional, cell-based; conditions: dose 1-10 µM
NCI-ADR-RES [26] = assay: Inhibition of PI3K/AKT signaling pathway in human NCI-ADR-RES cells assessed as increase in cleaved PARP level at 3 uM incubated for 24 to 48 hrs in presence of doxorubicin by Western blot analysis; format: cell-based; conditions: time 24-48 hrs
[27] = biological target: ATP-dependent translocase ABCB1 (Homo sapiens, UniProt P08183); assay: Effect on P-gp (unknown origin) ATPase activity assessed as increased ATP consumption using Mg-ATP as substrate preincubated for 5 min followed by Mg-ATP addition and measured after 40 mins by P-gp Glo luminescence assay
Chain of ATP-dependent translocase ABCB1 (P08183 whole entry): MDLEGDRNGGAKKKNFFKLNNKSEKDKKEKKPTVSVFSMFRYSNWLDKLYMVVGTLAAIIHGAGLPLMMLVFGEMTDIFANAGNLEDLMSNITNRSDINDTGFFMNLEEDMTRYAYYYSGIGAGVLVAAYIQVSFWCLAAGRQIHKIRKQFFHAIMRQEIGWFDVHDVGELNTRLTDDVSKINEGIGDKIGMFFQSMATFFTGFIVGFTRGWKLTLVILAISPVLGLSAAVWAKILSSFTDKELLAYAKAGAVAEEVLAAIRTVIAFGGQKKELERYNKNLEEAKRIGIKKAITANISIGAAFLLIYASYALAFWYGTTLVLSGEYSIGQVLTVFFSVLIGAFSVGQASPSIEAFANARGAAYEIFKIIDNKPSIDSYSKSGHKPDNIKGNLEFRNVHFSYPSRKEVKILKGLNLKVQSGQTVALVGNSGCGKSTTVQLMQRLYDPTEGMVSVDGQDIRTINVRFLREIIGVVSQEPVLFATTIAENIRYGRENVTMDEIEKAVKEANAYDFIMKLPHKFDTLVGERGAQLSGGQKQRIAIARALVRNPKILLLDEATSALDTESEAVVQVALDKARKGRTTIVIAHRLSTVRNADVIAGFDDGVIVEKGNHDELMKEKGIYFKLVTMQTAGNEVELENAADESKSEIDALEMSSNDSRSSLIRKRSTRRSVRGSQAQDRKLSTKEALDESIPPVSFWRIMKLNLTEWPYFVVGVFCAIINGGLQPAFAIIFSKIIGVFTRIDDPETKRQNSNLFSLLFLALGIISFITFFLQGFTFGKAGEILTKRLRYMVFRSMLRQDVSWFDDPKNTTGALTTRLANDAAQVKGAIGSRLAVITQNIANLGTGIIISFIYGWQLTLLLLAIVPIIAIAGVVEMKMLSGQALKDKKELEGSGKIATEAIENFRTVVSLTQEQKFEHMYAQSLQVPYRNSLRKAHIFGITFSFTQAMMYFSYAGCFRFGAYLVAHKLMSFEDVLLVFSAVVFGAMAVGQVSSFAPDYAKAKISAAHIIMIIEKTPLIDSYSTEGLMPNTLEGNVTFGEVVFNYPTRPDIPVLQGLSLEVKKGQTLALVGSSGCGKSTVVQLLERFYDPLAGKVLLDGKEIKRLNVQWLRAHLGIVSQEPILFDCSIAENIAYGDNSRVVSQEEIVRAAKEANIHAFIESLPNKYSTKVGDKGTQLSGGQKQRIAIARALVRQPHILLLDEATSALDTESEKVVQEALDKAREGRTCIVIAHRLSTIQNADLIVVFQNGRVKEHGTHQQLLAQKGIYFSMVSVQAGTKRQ

NCI/ADR-RES [28] = assay: Antiproliferative activity against human multidrug resistant NCI-ADR-RES cells overexpressing P-gp assessed as reduction in cell viability incubated for 48 hrs by MTT assay; format: functional, cell-based
A549/TR = assay: Antiproliferative activity against human Taxol resistant A549 cells assessed as inhibition of cell growth at 50 uM incubated for 48 hrs by MTT assay; format: functional, cell-based
NCI-ADR-RES [29] = assay: Inhibition of PI3K/AKT signaling pathway in human NCI-ADR-RES cells assessed as decrease in Bcl-xL level at 3 uM incubated for 24 to 48 hrs in presence of doxorubicin by Western blot analysis; format: cell-based; conditions: time 24-48 hrs

Structure (SMILES): C=C1[C@H](OC(C)=O)[C@@H](OC(C)=O)[C@@H](OC(C)=O)C(C)(C)/C=C/[C@H](C)[C@H](OC(=O)c2ccccc2)[C@@]2(O)C[C@@](C)(OC(=O)C(C)(C)C)[C@H](OC(C)=O)[C@@H]2[C@H]1OCC(C)C
- viability at 8 µM (NCI/ADR-RES [1]): 65%
- Activity (NCI/ADR-RES [2]): 10.2%
- inhibition (NCI-ADR-RES [3]): Active
- Activity (NCI/ADR-RES [4]): 0.73%
- Activity (NCI/ADR-RES [5]): inactive
- viability at 3 µM (NCI/ADR-RES [6]): 98.4%
- Activity (NCI/ADR-RES [7]): 0.24%
- viability at 8 µM (NCI/ADR-RES [8]): 87.1%
- Activity (NCI/ADR-RES [9]): 0.73%
- IC50 (MCF7 [10]): > 100 µM
- inhibition (NCI-ADR-RES [11]): inactive
- selectivity ratio (P-gp): 309
- Activity (MCF7 [12]): inactive
- EC50 (NCI/ADR-RES [13]): 0.182 µM
- Activity (NCI/ADR-RES [14]): 10.7%
- Activity (NCI/ADR-RES [15]): Active
- Activity (HEK-293T [16]): Non-Toxic
- Activity (HEK-293T [17]): Non-Toxic
- Activity (NCI/ADR-RES [18]): 1.06%
- Activity (NCI/ADR-RES [19]): 8.03%
- Activity (NCI/ADR-RES [20]): 0.67%
- IC50 at 48 h [21]: 56.3 µM
- inhibition (NCI-ADR-RES [22]): Active
- Activity (NCI/ADR-RES [23]): 16.4%
- inhibition (NCI-ADR-RES [24]): Active
- Activity (NCI/ADR-RES [25]): inactive
- inhibition (NCI-ADR-RES [26]): Active
- EC50 [27]: 0.357 µM
- IC50 (NCI/ADR-RES [28]): > 100 µM
- Activity (A549/TR): inactive
- inhibition (NCI-ADR-RES [29]): Active
